“And” between values parts separate entries of the source, which are not always exact repeats. Identical values can stand only once.
Each compound was assayed on Clone20-Shn3RL cells, Renilla luciferase luminescence, 24 h (assay: non-specific 3'UTR reporter inhibition in Clone20-Shn3RL – cell-based, Renilla luciferase, cherry-picked, counter-screen for Shn3 inhibitor project, dose response (AID 624133)).

Compared with `C[C@H]1[C@@H](OS(=O)(=O)O)C[C@@H]2C[C@H]([C@@H](O)c3cc(=O)[nH]c(=O)[nH]3)NC3=NC[C@H]1N32`, `CC1=CC2OC3CC4OC(=O)C=CC=CC(=O)OCCC(C)C(O)C(=O)OCC2(CC1O)C4(C)C31CO1` (centres undefined) is 1.5-fold higher in AC50: 3.1 µM for the first, 4.79 µM for the second.

`CC1=CC2OC3CC4OC(=O)C=CC=CC(C(C)O)OCC(O)C(C)CC(=O)OCC2(CC1O)C4(C)C31CO1` (centres undefined) and `CC1=CC2OC3CC4OC(=O)C=CC=CC(C(C)O)OCC(O)C5(C)OC5C(=O)OCC2(CC1O)C4(C)C31CO1` (centres undefined) cannot be ordered by AC50: < 0.26 µM for the first, < 0.26 µM for the second.

Going from `CC(=O)OC1C(=O)OCC23CCC4(C)OC4C2OC2CC(OC(=O)C=CC=CC(=O)OCCC1C)C3(C)C21CO1` (centres undefined) to `CC(=O)OC1CC2OC3C=C(C)CCC3(C)C1(C)C21CO1` (centres undefined), the AC50 rises from < 0.26 µM to 3.25 µM.

`CC(=O)OCC12CC(OC(=O)CC(C)C)C(C)=CC1OC1C(O)C(OC(C)=O)C2(C)C12CO2` (centres undefined) and `CC(=O)OC[C@]12CCC(C)=C[C@H]1O[C@@H]1[C@H](O)[C@@H](OC(C)=O)[C@@]2(C)[C@]12CO2` cannot be ordered by AC50: < 0.26 µM for the first, < 0.26 µM for the second.

For `CCN1CCN(Cc2ccc(NC(=O)c3cc(NC(=O)c4cc5cccc(OC)c5o4)cc(OC)c3)cc2C(F)(F)F)CC1`, the AC50 was 25.1 µM and 9.12 µM.

— PubChem BioAssay AID624133 (Broad Institute, 2012)
